Compound	melting point
C[C@@H](OC(=O)Nc1ccc(-c2c(C#N)c3ccc(Oc4ncccn4)cc3n2C2CCC2)cc1)C(F)(F)F [Compound 2852]	205 to 207 °C
C[C@@H](OC(=O)Nc1ccc(-c2c(C#N)c3ccc(O[C@@H]4CCOC4)cc3n2C2CCC2)cc1)C(F)(F)F [Compound 2853]	189 to 190 °C
COCCOc1ccc2c(C#N)c(-c3ccc(NC(=O)O[C@H](C)c4ccc(F)cc4)cc3)n(C(C)C)c2c1 [Compound 2854]	113 to 116 °C
CC(C)NC(=O)Nc1ccc(-c2c(C#N)c3ccc(N4CCOCC4)cc3n2C2CC2)cc1 [Compound 2855]	264 °C
CC(C)OC(=O)Nc1ccc(-c2c(C#N)c3ccc(N4CCOCC4)cc3n2C2CC2)cc1 [Compound 2856]	220 to 227 °C
C[C@@H](OC(=O)Nc1ccc(-c2c(C#N)c3ccc(N4CCOCC4)cc3n2C2CC2)cc1)C1CC1 [Compound 2857]	176 to 179 °C
N#Cc1c(-c2ccc(NC(=O)NC3CCC3)cc2)n(C2CC2)c2cc(N3CCOCC3)ccc12 [Compound 2858]	230 to 232 °C
CC(C)[C@H](C)OC(=O)Nc1ccc(-c2c(C#N)c3ccc(OC4COCOC4)cc3n2C2CCC2)cc1 [Compound 2859]	200 to 201 °C
N#Cc1c(-c2ccc(NC(=O)OCC3CC3)cc2)n(C2CCC2)c2cc(OC3COCOC3)ccc12 [Compound 2860]	197 to 198 °C
CC(OC(=O)Nc1ccc(-c2c(C#N)c3ccc(OC4COCOC4)cc3n2C2CCC2)cc1)C(C)(C)C (centres unmarked) [Compound 2861]	221 to 232 °C (dec.)
CC(C)NC(=O)Nc1ccc(-c2c(C#N)c3ccc(N4CCOCC4)cc3n2C2CCC2)cc1 [Compound 2862]	234 to 235 °C
N#Cc1c(-c2ccc(NC(=O)NC3CCC3)cc2)n(C2CCC2)c2cc(N3CCOCC3)ccc12 [Compound 2863]	172 °C (dec.)
C[C@@H](OC(=O)Nc1ccc(-c2c(C#N)c3ccc(N4CCOCC4)cc3n2C2CCC2)cc1)C(F)(F)F [Compound 2864]	220 to 222 °C
C[C@@H](OC(=O)Nc1ccc(-c2c(C#N)c3ccc(N4CCOCC4)cc3n2C2CCC2)cc1)c1ccc(F)cc1 [Compound 2865]	163 to 165 °C
C[C@@H](OC(=O)Nc1ccc(-c2c(C#N)c3ccc(N4CCOCC4)cc3n2C2CCC2)cc1)C1CC1 [Compound 2866]	194 to 195 °C
C[C@@H](OC(=O)Nc1ccc(-c2c(C#N)c3ccc(OC4CCOCC4)cc3n2C2CC2)cc1)c1ccc(F)cc1 [Compound 2869]	108 to 111 °C
CC(OC(=O)Nc1ccc(-c2c(C#N)c3ccc(OC4CCOCC4)cc3n2C2CCC2)cc1)C1CCC1 (centres unmarked) [Compound 2871]	198 to 199 °C
N#Cc1c(-c2ccc(NC(=O)OC3CCC3)cc2)n(C2CCC2)c2cc(OC3COCOC3)ccc12 [Compound 2872]	215 to 216 °C
CC(C)NC(=O)Nc1ccc(-c2c(C#N)c3ccc(OCCS(C)(=O)=O)cc3n2C2CCC2)cc1 [Compound 2873]	170 to 180 °C
N#Cc1c(-c2ccc(NC(=O)NC3CCC3)cc2)n(CC2CC2)c2cc(N3CCOCC3)ccc12 [Compound 2876]	170 to 230 °C
N#Cc1c(-c2ccc(NS(=O)(=O)C3CC3)cc2)n(C2CC2)c2cc(N3CCOCC3)ccc12 [Compound 2877]	241 to 243 °C
CCOc1ccc2c(C#N)c(-c3ccc(NC(=O)O[C@H](C)C(F)(F)F)cc3)n(C3CCC3)c2c1 [Compound 2878]	196 to 199 °C

Compound	melting point
C[C@@H](OC(=O)Nc1ccc(-c2c(C#N)c3ccc(OCCF)cc3n2C2CCC2)cc1)C(F)(F)F [Compound 2879]	198 to 200 °C
C[C@@H](OC(=O)Nc1ccc(-c2c(C#N)c3ccc(OC(F)F)cc3n2C2CCC2)cc1)C(F)(F)F [Compound 2880]	161 to 162 °C
CCn1ccnc1COc1ccc2c(C#N)c(-c3ccc(NC(=O)OC(C)C)cc3)n(C3CCC3)c2c1 [Compound 2881]	197 to 203 °C
CC(C)NC(=O)Nc1ccc(-c2c(C#N)c3ccc(OC4COCOC4)cc3n2C2CCC2)cc1 [Compound 2882]	210 to 212 °C
C[C@@H](OC(=O)Nc1ccc(-c2c(C#N)c3ccc(OC4COCOC4)cc3n2C2CCC2)cc1)C(F)(F)F [Compound 2885]	189 to 190 °C
Cc1cc(-c2c(C#N)c3ccc(OC4CCOCC4)cc3n2C2CCC2)ccc1NC(=O)OC(C)C [Compound 2889]	129 to 130 °C
CCCS(=O)(=O)Nc1ccc(-c2c(C#N)c3ccc(N4CCOCC4)cc3n2CC2CC2)cc1 [Compound 2890]	186 to 189 °C
CC(C)OC(=O)Nc1ccc(-c2c(C#N)c3ccc(N4CCOCC4)cc3n2CC2CC2)cc1 [Compound 2891]	170 to 180 °C
CC(C)OC(=O)Nc1ccc(-c2c(C#N)c3ccc(N4CCCCC4)cc3n2CC2CC2)cc1 [Compound 2892]	145 to 148 °C
CC(C)OC(=O)Nc1ccc(-c2c(C#N)c3ccc(OC4COCOC4)cc3n2C2CCC2)cc1 [Compound 2894]	208 to 210 °C
CS(=O)(=O)Nc1ccc(-c2c(C#N)c3ccc(C(=O)N4CCOCC4)cc3n2C2CCC2)cc1 [Compound 2897]	247 to 249 °C
CCS(=O)(=O)Nc1ccc(-c2c(C#N)c3ccc(C(=O)N4CCOCC4)cc3n2C2CCC2)cc1 [Compound 2898]	220 to 222 °C
CC(C)S(=O)(=O)Nc1ccc(-c2c(C#N)c3ccc(C(=O)N4CCOCC4)cc3n2C2CCC2)cc1 [Compound 2899]	169 to 171 °C
N#Cc1c(-c2ccc(NS(=O)(=O)C3CCC3)cc2)n(C2CCC2)c2cc(C(=O)N3CCOCC3)ccc12 [Compound 2900]	198 to 200 °C
CC(C)CS(=O)(=O)Nc1ccc(-c2c(C#N)c3ccc(C(=O)N4CCOCC4)cc3n2C2CCC2)cc1 [Compound 2901]	210 to 212 °C
CCCS(=O)(=O)Nc1ccc(-c2c(C#N)c3ccc(Oc4nccc(C)n4)cc3n2C2CCC2)cc1 [Compound 2902]	223 to 227 °C
Cc1ccnc(Oc2ccc3c(C#N)c(-c4ccc(NS(=O)(=O)C5CC5)cc4)n(C4CCC4)c3c2)n1 [Compound 2903]	172 to 174 °C
COc1ccnc(Oc2ccc3c(C#N)c(-c4ccc(NS(=O)(=O)CC(C)C)cc4)n(C4CCC4)c3c2)n1 [Compound 2904]	182 to 186 °C
C[C@@H](OC(=O)Nc1ccc(-c2c(C#N)c3ccc(N4CCCCC4)cc3n2CC2CC2)cc1)C1CC1 [Compound 2907]	127 to 132 °C
N#Cc1c(-c2ccc(NS(=O)(=O)C3CC3)cc2)n(CC2CC2)c2cc(N3CCCCC3)ccc12 [Compound 2908]	191 to 194 °C
Cc1nccnc1Oc1ccc2c(C#N)c(-c3ccc(NC(=O)O[C@H](C)C4CC4)cc3)n(C3CCC3)c2c1 [Compound 2909]	201 to 202 °C
C[C@@H](OC(=O)Nc1ccc(-c2c(C#N)c3ccc(OC4CCOCC4)cc3n2C2CC2)cc1)C(F)(F)F [Compound 2910]	162 to 164 °C

Compound	melting point
CS(=O)(=O)Nc1ccc(-c2c(C#N)c3ccc(OC4CCOCC4)cc3n2C2CC2)cc1 [Compound 2911]	205 to 207 °C
CCS(=O)(=O)Nc1ccc(-c2c(C#N)c3ccc(OC4CCOCC4)cc3n2C2CC2)cc1 [Compound 2912]	212 to 214 °C
Cc1ccnc(Oc2ccc3c(C#N)c(-c4ccc(NC(=O)O[C@H](C)C5CC5)cc4)n(C4CCC4)c3c2)n1 [Compound 2913]	172 to 174 °C
N#Cc1c(-c2ccc(N3CCCS3(=O)=O)cc2)n(C2CCC2)c2cc(N3CCOCC3)ccc12 [Compound 2914]	290 to 292 °C
CS(=O)(=O)Nc1ccc(-c2c(C#N)c3ccc(N4CCOCC4)cc3n2C2CCC2)cc1 [Compound 2915]	269 to 271 °C
CC(C)CS(=O)(=O)Nc1ccc(-c2c(C#N)c3ccc(OC4COCOC4)cc3n2C2CCC2)cc1 [Compound 2917]	175 to 177 °C
N#Cc1c(-c2ccc(NS(=O)(=O)C3CCCC3)cc2)n(C2CCC2)c2cc(OC3COCOC3)ccc12 [Compound 2918]	195 to 196 °C
N#Cc1c(-c2ccc(NS(=O)(=O)C3CCC3)cc2)n(C2CCC2)c2cc(OC3COCOC3)ccc12 [Compound 2919]	200 to 204 °C
CC(C)S(=O)(=O)Nc1ccc(-c2c(C#N)c3ccc(OC4COCOC4)cc3n2C2CCC2)cc1 [Compound 2920]	196 to 198 °C
N#Cc1c(-c2ccc(N3CCCS3(=O)=O)cc2)n(CC2CC2)c2cc(N3CCOCC3)ccc12 [Compound 2921]	241 to 245 °C
CCc1cnc(Oc2ccc3c(C#N)c(-c4ccc(NC(=O)O[C@H](C)C5CC5)cc4)n(C4CCC4)c3c2)nc1 [Compound 2923]	158 to 160 °C
C[C@@H](OC(=O)Nc1ccc(-c2c(C#N)c3ccc(Oc4nccc(C(F)(F)F)n4)cc3n2C2CCC2)cc1)C1CC1 [Compound 2924]	119 to 121 °C
CCn1c(-c2ccc(N3CCCS3(=O)=O)cc2)c(C#N)c2ccc(N3CCOCC3)cc21 [Compound 2926]	247 to 248 °C
N#Cc1c(-c2ccc(N3CCCS3(=O)=O)cc2)n(C2CC2)c2cc(N3CCOCC3)ccc12 [Compound 2927]	260 to 265 °C
N#Cc1c(-c2ccc(NS(=O)(=O)C3CC3)cc2)n(C2CCC2)c2cc(OC3COCOC3)ccc12 [Compound 2928]	216 to 217 °C
CCn1c(-c2ccc(NC(=O)O[C@H](C)C(F)(F)F)cc2)c(C#N)c2ccc(Oc3ncccn3)cc21 [Compound 2929]	221 to 223 °C
CCCS(=O)(=O)Nc1ccc(-c2c(C#N)c3ccc(Oc4nccnc4Cl)cc3n2C2CCC2)cc1 [Compound 2930]	227 to 229 °C
CCCS(=O)(=O)Nc1ccc(-c2c(C#N)c3ccc(Oc4nccnc4C)cc3n2C2CCC2)cc1 [Compound 2931]	227 to 230 °C
CCCS(=O)(=O)Nc1ccc(-c2c(C#N)c3ccc(-c4c(C)noc4C)cc3n2C2CCC2)cc1 [Compound 2932]	224 to 225 °C
C[C@@H](OC(=O)Nc1ccc(-c2c(C#N)c3ccc(N4CCOCC4)cc3n2CC2CC2)cc1)C1CC1 [Compound 2933]	167 to 173 °C
CC(C)OC(=O)Nc1ccc(-c2c(C#N)c3ccc(N4CCOCC4)cc3n2C(C)C)cc1 [Compound 2934]	192 to 195 °C

From patent US7772271B2 (priority 2004, dated 2010)
